Read-outs that look alike come from different tables or passages of the source.
What was measured:
Experiment in all cases: microbe, parasite or virus in culture
Assay type in all cases: cell-based
[1] = test system: C. freundii; conditions: Citrobacter freundii
From the text: (§1) The antibacterial activity of cefepime-taniborbactam was compared to that of ceftazidime-avibactam, ceftolozane-tazobactam, and cefepime-tazobactam against a diverse panel of Enterobacterales and P. aeruginosa clinical isolates with defined β-lactamase subtypes (see Table S1 in the supplemental material). IMP-producing strains were excluded, as none of the BLI-protected cephalosporins inhibited IMP sufficiently to provide a clinically relevant rescue of the partner β-lactam, a characteristic also shared by approved BLI-protected carbapenems (meropenem-vaborbactam and imipenem-relebactam). […] The antibacterial activity of the cephalosporins alone was included to ascertain the level of potentiation by the partnered BLI. BLIs were tested at a fixed concentration of 4 μg/ml in all combinations except cefepime-tazobactam, where tazobactam was fixed at a concentration of 8 μg/ml ([38]). The collection comprised 143 clinical isolates collected from 2005 and 2018.
(§2) The in vitro antibacterial activity of the β-lactams alone or in combination with the BLIs was determined in cation-adjusted Mueller-Hinton broth (CAMHB) microdilution assays according to CLSI recommendations ([51]). […]. The inocula for the broth microdilution assays were prepared by the broth culture method ([51]). […]

[2] = test system: E. coli
From the text: as §1, §2

[3] = test system: K. aerogenes; conditions: Klebsiella aerogenes
From the text: as §1, §2

[4] = test system: K. oxytoca; conditions: Klebsiella oxytoca
From the text: as §1, §2

[5] = test system: K. pneumoniae
From the text: as §1, §2

Work on `CC(C)(O/N=C(\C(=O)N[C@@H]1C(=O)N2C(C(=O)[O-])=C(C[n+]3ccccc3)CS[C@H]12)c1csc(N)n1)C(=O)O` [CAZ] yielded an MIC ([1]; strain 134390, AmpC/TEM-1) of 16 mg/L, an MIC ([1]; strain 241181, AmpC/TEM-163) of 8 mg/L and an MIC [2] of 64 mg/L. It also gave an MIC ([2]; Escherichia coli, strain 469, AmpC/SHV-12/TEM-1, read-out: MIC) of 64 mg/L, an MIC ([2]; Escherichia coli, strain 1924, TEM-12, read-out: MIC) of 32 mg/L and an MIC ([2]; Escherichia coli, strain 664507, OXA-48, read-out: MIC) of 64 mg/L. The MIC ([2]; Escherichia coli, strain 664516, OXA-48, read-out: MIC) was 64 mg/L, the MIC ([2]; Escherichia coli, strain 664520, OXA-48, read-out: MIC) was 64 mg/L and the MIC ([2]; Escherichia coli, strain 664522, OXA-48, read-out: MIC) was 64 mg/L. The MIC ([2]; Escherichia coli, strain 664523, OXA-48, read-out: MIC) was 64 mg/L, the MIC ([2]; Escherichia coli, strain 873435, CTX-M-15, read-out: MIC) was 128 mg/L and the MIC ([2]; Escherichia coli, strain 875627, CTX-M-27, read-out: MIC) was 8 mg/L. It also gave an MIC ([2]; Escherichia coli, strain 878358, TEM-1/CTX-M, read-out: MIC) of 32 mg/L, an MIC ([2]; Escherichia coli, strain 890500, TEM-1/CTX-M-14, read-out: MIC) of 4 mg/L and an MIC ([2]; Escherichia coli, strain 1275635, VIM-23, read-out: MIC) of 128 mg/L. For the same compound, the MIC ([2]; Escherichia coli, strain 1459453, NDM-7, read-out: MIC) was at least 256 mg/L, the MIC ([2]; Escherichia coli, strain CDC-0069, NDM, read-out: MIC) was at least 256 mg/L and the MIC ([2]; Escherichia coli, strain CDC-0149, NDM, read-out: MIC) was at least 256 mg/L. It also gave an MIC ([2]; Escherichia coli, strain EC1552 2A, AmpC/CMY-2/TEM-1, CTX-M-15, read-out: MIC) of 64 mg/L, an MIC ([2]; Escherichia coli, strain ESBL 5, CTX-M-15/TEM-1, read-out: MIC) of 128 mg/L and an MIC ([2]; Escherichia coli, strain SI-LP377, CTX-M-2, read-out: MIC) of 8 mg/L. For the same compound, the MIC ([2]; Escherichia coli, strain SI-M004, SHV-2/GES-12, read-out: MIC) was at least 256 mg/L, the MIC ([2]; Escherichia coli, strain SI-PO26, AmpC/CMY-2/TEM-1, read-out: MIC) was 64 mg/L and the MIC ([2]; Escherichia coli, strain SI-V502, TEM-29/CTX-M-15, read-out: MIC) was 32 mg/L. For the same compound, the MIC ([2]; Escherichia coli, strain VER, OXA-48, read-out: MIC) was 0.5 mg/L, the MIC ([3]; strain 73546, AmpC) was 32 mg/L and the MIC ([3]; strain 110099, AmpC/SHV-12) was 128 mg/L. For the same compound, the MIC ([3]; strain 111707, AmpC/TEM-1) was 32 mg/L, the MIC [4] was at least 256 mg/L and the MIC ([4]; strain 134943, CMY-2/TEM-1, read-out: MIC) was 128 mg/L. For the same compound, the MIC [5] was 64 mg/L, the MIC ([5]; Klebsiella pneumoniae, strain 6299, OXA-163, read-out: MIC) was 128 mg/L and the MIC ([5]; Klebsiella pneumoniae, strain 178279, SHV-12/TEM-1/AmpC, read-out: MIC) was 128 mg/L. The MIC ([5]; Klebsiella pneumoniae, strain 196477, AmpC, read-out: MIC) was at least 256 mg/L, the MIC ([5]; Klebsiella pneumoniae, strain 212027, AmpC/FOX-5/TEM-1, read-out: MIC) was 128 mg/L and the MIC ([5]; Klebsiella pneumoniae, strain 515746, OXA-48, read-out: MIC) was 64 mg/L. It also gave an MIC ([5]; Klebsiella pneumoniae, strain 664438, OXA-48, read-out: MIC) of 128 mg/L, an MIC ([5]; Klebsiella pneumoniae, strain 664439, OXA-48, read-out: MIC) of 128 mg/L and an MIC ([5]; Klebsiella pneumoniae, strain 722870, OXA-48, read-out: MIC) of 64 mg/L. For the same compound, the MIC ([5]; Klebsiella pneumoniae, strain 752334, OXA-48, read-out: MIC) was 128 mg/L, the MIC ([5]; Klebsiella pneumoniae, strain 769972, OXA-48, read-out: MIC) was 64 mg/L and the MIC ([5]; Klebsiella pneumoniae, strain 787422, OXA-48, read-out: MIC) was 8 mg/L. It also gave an MIC ([5]; Klebsiella pneumoniae, strain 856819, SHV-11/VIM-1, read-out: MIC) of at least 256 mg/L, an MIC ([5]; Klebsiella pneumoniae, strain 873460, SHV-30/CTX-M-15, read-out: MIC) of 64 mg/L and an MIC ([5]; Klebsiella pneumoniae, strain 874328, SHV-11/CTX-M-15/NDM-1, read-out: MIC) of at least 256 mg/L. It also gave an MIC ([5]; Klebsiella pneumoniae, strain 882956, SHV-31/DHA-1/VIM-1, read-out: MIC) of at least 256 mg/L, an MIC ([5]; Klebsiella pneumoniae, strain 890066, SHV-33/TEM-33/CTX-M-15/IMP-1, read-out: MIC) of at least 256 mg/L and an MIC ([5]; Klebsiella pneumoniae, strain 892694, SHV-12/TEM-1/CTX-M-15/OXA-48/ACT, read-out: MIC) of at least 256 mg/L. For the same compound, the MIC ([5]; Klebsiella pneumoniae, strain 919877, SHV-OSBL/VIM-1, read-out: MIC) was at least 256 mg/L, the MIC ([5]; Klebsiella pneumoniae, strain 1104864, SHV-OSBL(b)/VIM-1, read-out: MIC) was at least 256 mg/L and the MIC ([5]; Klebsiella pneumoniae, strain 1104866, SHV-OSBL(b)/VIM-1, read-out: MIC) was at least 256 mg/L. It also gave an MIC ([5]; Klebsiella pneumoniae, strain 1280442, SHV-OSBL(b)/VIM-1, read-out: MIC) of at least 256 mg/L, an MIC ([5]; Klebsiella pneumoniae, strain CDC-0049, NDM, read-out: MIC) of at least 256 mg/L and an MIC ([5]; Klebsiella pneumoniae, strain CDC-0139, NDM-1, read-out: MIC) of at least 256 mg/L.

Source: publication PMC7038240 (Antimicrobial Agents and Chemotherapy, 2020)
